target: human autotaxin (Homo sapiens (Human), UniProt Q13822); assay: Human Autotaxin Assay; type: biochemical; conditions: not given
Experimental: ATX activity is assayed in concentrated conditioned media from Hep3B human hepatocellular carcinoma cells by measuring the amount of choline released from the substrate, lysophosphatidylcholine (LPC) as it is cleaved to LPA. Conditioned media is collected from confluent Hep3B cells and concentrated 20-fold using Centriprep-30 filter devices (Millipore). […] 100 μl of a color mix containing 4.5 mM 4-aminoantipyrine, 2.7 mM N-ethyl-N-(2-hydroxy-3-sulfopropyl)-m-toluidine, 21 units/ml horseradish peroxidase and 3 units/ml choline oxidase in 50 mM Tris, pH 8, 4.5 mM MgCl2 is added and the incubation continued for 15 minutes at room temperature before reading the absorbance at 555 nm.

SMILES | IC50
N#C/C(=C\c1cn(Cc2ccc(F)cc2)c2nc(Cl)ccc12)c1ccc(C(=O)O)cc1 [Compound 3-3, (Z)-4-(2-(6-chloro-1-(4-fluorobenzyl)-1H-pyrrolo[2,3-b]pyridin-3-yl)-1-cyanovinyl)benzoic acid] | 500 to 10000 nM

same assay, conditions: ATX in concentrated conditioned media from Hep3B cells; choline released from LPC substrate; read-out: IC50

SMILES | IC50
COc1ccc(Cn2nc(/C=C(\C#N)c3ccc(C(=O)O)cc3)c3ccc(Cl)cc32)cn1 [Compound 1-7, (Z)-4-(2-(6-chloro-1-((6-methoxypyridin-3-yl)methyl)-1H-indazol-3-yl)-1-cyanovinyl)benzoic acid] | < 500 nM
N#C/C(=C\c1nn(Cc2cc(C(F)(F)F)cc(C(F)(F)F)c2)c2cc(Cl)ccc12)c1ccc(C(=O)O)cc1 [Compound 1-4, (Z)-4-(2-(1-(3,5-bis(trifluoromethyl)benzyl)-6-chloro-1H-indazol-3-yl)-1-cyanovinyl)benzoic acid] | 500 to 10000 nM
O=C(O)c1ccc(/C=C/c2nn(Cc3ccc(F)cc3)c3cc(Cl)ccc23)cc1 [Compound 1-8, (E)-4-(2-(6-chloro-1-(4-fluorobenzyl)-1H-indazol-3-yl)vinyl)benzoic acid] | 500 to 10000 nM
N#C/C(=C\c1nn(Cc2cc(Cl)cc(Cl)c2)c2cc(Cl)ccc12)c1ccc(C(=O)O)cc1 [Compound 1-3] | 500 to 10000 nM
N#C/C(=C\c1nn(Cc2ccccc2)c2cc(Cl)ccc12)c1ccc(C(=O)O)cc1 [Compound 1-2, (Z)-4-(2-(1-benzyl-6-chloro-1H-indazol-3-yl)-1-cyanovinyl)benzoic acid] | < 500 nM
Cn1ccc(Cn2nc(/C=C(\C#N)c3ccc(C(=O)O)cc3)c3ccc(Cl)cc32)n1 [Compound 1-5, (Z)-4-(2-(6-chloro-1-((1-methyl-1H-pyrazol-3-yl)methyl)-1H-indazol-3-yl)-1-cyanovinyl)benzoic acid] | > 10000 nM
N#C/C(=C\c1nn(Cc2ccc(Cl)nc2)c2cc(Cl)ccc12)c1ccc(C(=O)O)cc1 [Compound 1-6, (Z)-4-(2-(6-chloro-1-((6-chloropyridin-3-yl)methyl)-1H-indazol-3-yl)-1-cyanovinyl)benzoic acid] | < 500 nM
N#C/C(=C\c1nn(Cc2ccc(F)cc2)c2cc(Cl)ccc12)c1ccc(C(=O)O)cc1 [Compound 1-1, (Z)-4-(2-(6-chloro-1-(4-fluorobenzyl)-1H-indazol-3-yl)-1-cyanovinyl)benzoic acid] | < 500 nM

Further lines, results first:

IC50 | SMILES
500 to 10000 nM | COc1ccc(Cn2cc(/C=C(\C#N)c3ccc(C(=O)O)cc3)c3cccnc32)cn1 [Compound 3-2, (Z)-4-(1-cyano-2-(1-((6-methoxypyridin-3-yl)methyl)-1H-pyrrolo[2,3-b]pyridin-3-yl)vinyl)benzoic acid]
> 10000 nM | CCCn1cc(-n2c(C)c(/C=C(\C#N)c3ccc(C(=O)O)cc3)c3ccsc32)cn1 [Compound 5-1, (Z)-4-(1-cyano-2-(5-methyl-6-(1-propyl-1H-pyrazol-4-yl)-6H-thieno[2,3-b]pyrrol-4-yl)vinyl)benzoic acid]
< 500 nM | COc1ccc(Cn2cc(/C=C(\C#N)c3ccc(C(=O)O)cc3)c3ccc(Cl)nc32)cn1 [Compound 3-4, (Z)-4-(2-(6-chloro-1-((6-methoxypyridin-3-yl)methyl)-1H-pyrrolo[2,3-b]pyridin-3-yl)-1-cyanovinyl)benzoic acid]
< 500 nM | N#C/C(=C\c1cn(Cc2ccc(F)cc2)c2ncccc12)c1ccc(C(=O)O)cc1 [Compound 3-1, (Z)-4-(1-cyano-2-(1-(4-fluorobenzyl)-1H-pyrrolo[2,3-b]pyridin-3-yl)vinyl)benzoic acid]

Source: US9951026B2, “Heterocyclic vinyl autotaxin inhibitor compounds” (PharmAkea, Inc., priority 2013, dated 2018)
